Legend:
Assay type in all cases: in vivo
[1] = system: Carnitine palmitoytransferase (CPT); assay: CPT activity in kidney mitochondria (spectrophotometric assay); conditions: Wistar rats, oral gavage daily 2 weeks; 91 mg CLA, 68,25 mg L-carnitine fumarate
Procedure: (§1) Methods: Four groups of 3-months old Wistar rats were given the following treatments by oral gavage daily for 2 weeks: (1) C (control)−1 ml corn oil, (2) CLA−91 mg CLA (in corn oil), (3) CAR−68,25 mg L-carnitine fumarate (in corn oil), (4) CLA+CAR−91 mg CLA with 68,25 mg L-carnitine fumarate (in corn oil). Body weight and body fat weight (corpus adiposum nuchae, corpus adiposum, perirenal tissue, omentum majus) were measured. CoQ 10 and CoQ9 in isolated mitochondria were estimated by HPLC method. For evaluation of parameters of oxidative phosphorylation were used Gilson oxygraph records of respiratory chain by using Clark oxygen electrode (S3— ADP stimulated respiration, S4— basal respiration, OPR—rate of ATP production). A spectrophotometric assay was used for CPT activity.

[2] = system: carnitine palmitoyl transferase (CPT 1); assay: CPT I activity in brown adipose tissue after two weeks of daily oral gavage; conditions: adult rats, oral gavage daily for two weeks; for CPT I activity in brown adipose tissue (low dose) % Control: control = corn oil; for CPT I activity in brown adipose tissue (standard dose) % Control: control = water; for CPT I activity in brown adipose tissue (low dose) Mean ± SEM: L-Carnitine 68.25 mg, CLA 91 mg, Carnitine+CLA 68.25 mg+91 mg; for CPT I activity in brown adipose tissue (standard dose) Mean ± SEM: L-Carnitine 273 mg, CLA 354 mg, Carnitine+CLA 273 mg+364 mg
From the text: Brown adipose tissue is an important site for long-term storage of fat in the body and for the rapid metabolism of fat for thermogenesis. CPT I is a key enzyme in this process and it has an essential role In the metabolism of fats by transporting long chain fatty acids into the Inner mitochondria for oxidation. The first experiment involved the following groups of adult rats. The treatment involved administration of the following products daily by oral gavage for two weeks, the control group receiving water. Carnitine was administered as the fumarate salt. • 1. Control (water)−(1 mL) • 2. L-Carnitine−273 mg (in 1 mL water) • 3. CLA−354 mg (In 1 mL corn oil) • 4. Carnitine+CLA−273 mg+364 mg (in 1 mL corn oil) At the end of two weeks, the animals were euthanized and brown adipose tissue was excised for CPT I assay according to Rahman et al(2001). […] Corn Oil−(1 mL) • 2. L-Carnitine−68.25 mg (in 1 mL water) • 3. CLA−91 mg (in 1 mL corn oil) • 4. Carnitine+CLA−68.25 mg+91 mg (in 1 mL corn oil)

[3] = system: heart mitochondrial CoQ; assay: Heart mitochondrial CoQ levels (HPLC) after 2 weeks of supplementation; conditions: Wistar rats; for Heart mitochondrial CoQ content (CoQ10-OX+CoQ9-OX) in comparison with control group: 2 weeks, result in words; for HEART mitochondria CoQ9-OX / HEART mitochondria CoQ10 + CoQ9 / HEART mitochondria CoQ10-OX: oral gavage daily 2 weeks, 91 mg CLA, 68,25 mg L-carnitine fumarate, means ± s.e.m.
Procedure: as §1

[4] = system: kidney mitochondrial CoQ; assay: Kidney mitochondrial CoQ levels (HPLC) after 2 weeks of supplementation; conditions: Wistar rats; for Kidney mitochondrial CoQ content (CoQ10-OX+CoQ9-OX) in comparison with control group: 2 weeks, result in words; for KIDNEY mitochondria CoQ9-OX / KIDNEY mitochondria CoQ10 + CoQ9 / KIDNEY mitochondria CoQ10-OX: oral gavage daily 2 weeks, 91 mg CLA, 68,25 mg L-carnitine fumarate
Procedure: as §1

[5] = system: Carnitine palmitoytransferase (CPT); assay: CPT activity in heart mitochondria (spectrophotometric assay); conditions: Wistar rats, oral gavage daily 2 weeks; 91 mg CLA, 68,25 mg L-carnitine fumarate; means ± s.e.m.
Procedure: as §1

Compound | KIDNEY mitochondria CPT [1] [nmol/mg rot./min] | CPT I activity in brown adipose tissue (low dose) % Control [2] [% Control] | CPT I activity in brown adipose tissue (standard dose) % Control [2] [% Control] | CPT I activity in brown adipose tissue (low dose) Mean ± SEM [2] [nmoles/mg protein/min] | CPT I activity in brown adipose tissue (standard dose) Mean ± SEM [2] | Heart mitochondrial CoQ content (CoQ10-OX+CoQ9-OX) in comparison with control group [3] | HEART mitochondria CoQ9-OX [3] [nmol/mg prot.] | HEART mitochondria CoQ10 + CoQ9 [3] [nmol/mg prot.] | HEART mitochondria CoQ10-OX [3] [nmol/mg prot.] | Kidney mitochondrial CoQ content (CoQ10-OX+CoQ9-OX) in comparison with control group [4] | KIDNEY mitochondria CoQ9-OX [4] [nmol/mg prot.] | KIDNEY mitochondria CoQ10 + CoQ9 [4] [nmol/mg prot.] | KIDNEY mitochondria CoQ10-OX [4] [nmol/mg prot.] | HEART mitochondria CPT [5] [nmol/mg rot./min]
C[N+](C)(C)CC(O)CC(=O)[O-] (stereo not shown) [Carnitine, 3-hydroxy-4-N,N, N-trlmethylaminobutyrate] | 2.974 ± 0.466 | 125 | 117.85 | 27.024 ± 2.074 | 26.808 ± 2.373 nmoles/mg protein/min | significantly stimulated | 4.692 ± 0.168 | 5.147 ± 0.181 | 0.452 ± 0.021 | significantly stimulated | 1.290 ± 0.119 | 1.471 ± 0.128 | 0.138 ± 0.012 | 12.36 ± 1.759
octadecadienoic acid [CLA] | 6.517 ± 0.351 | 121.53 | 129.82 | 27.840 ± 1.259 | 29.530 + 1.590 nmoles/mg protein/min | significantly stimulated | 3.379 ± 0.261 | 3.722 ± 0.298 | 0.343 ± 0.041 | significantly stimulated | 1.162 ± 0.102 | 1.284 ± 0.105 | 0.122 ± 0.005 | 15.52 ± 1.080

— patent US20060041017A1, “Synergistic conjugated linoleic acid (CLA) and carnitine combination” (priority 2004, published 2006)
